Experimental data as given in patent US20110263642A1, “METHODS FOR TREATMENT OF MULTIPLE SCLEROSIS” (FibroGen, Inc., priority 2008, published 2011).
Read-outs that look alike come from different tables or passages of the source.

How the values were obtained:
[1] = test system: Oligodendrocytes (MO3.13 cells); assay: Ceramide-induced cell death of oligodendrocytes, Calcein AM viability; type: cell-based; settings: compound 20 μM, non-ceramide control = 100
From the text: (See e.g., Craighead et al. (2000) Neurosci Lett. 278:125-8; Jana et al. (2007) J Neuroimmune Pharmacol. 2:184-93; Jana et al. (2009) J Neurol Sci. 278:5-15; Singh et al. (1998) J Biol. Chem. 273:20354-62.) In this model, addition of ceramide to cultured oligodendrocytes results in oxidative stress-induced cell death (i.e. apoptosis). The effect of compounds and methods of the present invention on the ability to improve oligodendrocyte viability following ceramide challenge was examined as follows. Oligodendrocytes (MO3.13 cells; Cedarlane Laboratories, Burlington, N.C.) were plated in 96-well culture dishes at a density of 4000 cells per well and cultured at 37° C., 10% CO2 in DMEM containing L-glutamine, sodium pyruvate, and 25 mM glucose (Mediatech Inc., Manassas, Va.) and supplemented with 10% FBS (Invitrogen Corporation, Carlsbad, Calif.). The next day, the plating media was removed and replaced with DMEM containing L-glutamine (Invitrogen Corporation, Carlsbad, Calif.) and supplemented with 5.5 mM glucose. Cells were then treated with vehicle (0.015% DMSO) or ceramide (Sigma-Aldrich, St. Louis, Mo.) plus vehicle (0.05% DMSO) or a compound of the invention (20 μM).
For cells treated longer than 3 days, half the media was removed after the third day of treatment and replaced with an equal volume of fresh treatment media containing vehicle (0.015% DMSO) or ceramide plus vehicle (0.05% DMSO) or a compound of the invention.
Cell viability was assessed 3, 4, and 5 days after treatment using the following protocol. Treatment media was removed from the cells and 100 ul of 1.67 uM Calcein AM reagent (Invitrogen Corporation, Carlsbad, Calif.) prepared in DMEM containing L-glutamine (Invitrogen Corporation, Carlsbad, Calif.) and supplemented with 5.5 mM glucose was added to each well. Cells were returned to 37° C. in a 10% CO2 incubator for approximately 30 minutes before assessing fluorescence (Ex 485 nm/Em 538 nm) using a microplate reader (Molecular Devices, Sunnyvale, Calif.). Images were taken of representative wells using a fluorescent microscope equipped with a camera (Nikon, Melville, N.Y.) and imaging software (Nikon, Melville, N.Y.).

[2] = test system: EAE animal model of chronic progressive multiple sclerosis; assay: Chronic progressive EAE induced by MOG35-55 and pertussis toxin in mice, neurological scoring to day 35; type: in vivo, C57BL/6 mice
From the text: A chronic progressive model of EAE is an accepted animal model of human chronic progressive multiple sclerosis (MS). In this model, induction of chronic progressive EAE occurs following injections of myelin oligodendrocyte glycoprotein (MOG). Approximately 8 to 14 days after injection of MOG, animals develop chronic progressive paralysis similar to that observed in humans with chronic progressive MS.
Female C57BL/6 mice (8-10 weeks old) were used in this study (Taconic Farm, CA). Compounds of the present invention were formulated in 0.5% carboxymethyl cellulose (CMC) with 0.1% Polysorbate 80 to achieve a final concentration of either 1.2 mg/ml or 4.0 mg/ml. FTY-720 was also formulated in 0.5% carboxymethyl cellulose (CMC) with 0.1% Polysorbate 80 to achieve a final concentration of 2.0 mg/ml.
Induction of chronic progressive EAE by injection with myelin oligodendrocyte glycoprotein (MOG) was performed as follows. Mice were injected subcutaneously with 200 μg of myelin oligodendrocyte glycoprotein (MOG35-55) peptide emulsion in both sides of their pectoral regions (50 μl each side). At 8 hours and 48 hr after immunization with MOG, animals were injected intraperitoneally with 400 ng of pertussis toxin (PT) in 100 μl of saline. Control mice received both injections with an equivalent volume of saline without MOG or PT.
[…] FTY-720 (10 mg/kg) was used in this study as a positive control and was administered daily from day 0 to day 35.
Neurological scoring was performed daily from day 7 to day 35 following MOG injection. Grading of disease severity (i.e., disease score) was based on the following observations performed by two different observers: 0=no abnormality; 1=distal weakness of the tail (limp tail); 2=limp tail and weakness of hind legs (mild paraparesis); 3=limp tail and complete paralysis of hind legs or paralysis in one of one front leg and one hind leg (moderate paraparesis); 4=limp tail, complete hind leg and partial front leg paralysis (moderate quadraparesis); 5=complete hind and front leg paralysis (moribund). Analysis of variance (ANOVA) was performed on data from the measured (neurological score) parameters. p value≦0.05 were considered significant.

[3] = 72 h, ceramide 2.75 μM, read-out: % Viable at Day 3
[4] = 96 h, ceramide 2.75 μM, read-out: % Viable at Day 4
[5] = 120 h, ceramide 2.75 μM, read-out: % Viable at Day 5
[6] = 72 h, ceramide 2.25 μM, read-out: % Viable at Day 3
[7] = 96 h, ceramide 2.25 μM, read-out: % Viable at Day 4
[8] = 120 h, ceramide 2.25 μM, read-out: % Viable at Day 5

SMILES: CCCCOc1ccc2c(O)c(C(=O)NCC(=O)O)c(=O)sc2c1 [Compound M, [(7-Butoxy-4-hydroxy-2-oxo-2H-thiochromene-3-carbonyl)-amino]-acetic acid]
- viability at 20 µM [1, 3]: 74%
- viability at 20 µM [1, 4]: 57%
- viability at 20 µM [1, 5]: 59%

SMILES: O=C(O)CNC(=O)c1c(O)c2cc(Cl)cn2n(Cc2ccc(Cl)cc2)c1=O [Compound I, {[6-Chloro-1-(4-chloro-benzyl)-4-hydroxy-2-oxo-1,2-dihydro-pyrrolo[1,2-b]pyridazine-3-carbonyl]-amino}-acetic acid]
- viability at 20 µM [1, 3]: 76%
- viability at 20 µM [1, 4]: 66%
- viability at 20 µM [1, 5]: 64%

SMILES: O=C(O)CNC(=O)c1c(O)c2ccc(-c3ccc(Oc4ccccc4)cc3)cc2oc1=O [Compound J, {[4-Hydroxy-2-oxo-7-(4-phenoxy-phenyl)-2H-chromene-3-carbonyl]-amino}-acetic acid]
- viability at 20 µM [1, 3]: 70%
- viability at 20 µM [1, 4]: 36%
- viability at 20 µM [1, 5]: 22%

SMILES: CCCCCCCCc1ccc(CCC(N)(CO)CO)cc1 [FTY-720, reference compound]
- development of EAE disease (positive control) ([2]; 10 mg/kg daily, day 0 to day 35): prevented the development of EAE disease
- No. of Animals Showing No Disease Activity ([2]; through day 35, FTY-720 (Table 3: 10 mg/kg/d, daily)): 7/7

SMILES: O=C(O)CNC(=O)c1c(O)c2cccn2n(Cc2ccc(C(F)(F)F)cc2)c1=O [Compound G, {[4-Hydroxy-2-oxo-1-(4-trifluoromethyl-benzyl)-1,2-dihydro-pyrrolo[1,2-b]pyridazine-3-carbonyl]-amino}-acetic acid]
- viability at 20 µM [1, 6]: 94%
- viability at 20 µM [1, 7]: 86%
- viability at 20 µM [1, 8]: 80%

SMILES: N#Cc1nc(C(=O)NCC(=O)O)c(O)c2ccn(Cc3ccccc3F)c12 [Compound O, {[7-Cyano-1-(2-fluoro-benzyl)-4-hydroxy-1H-pyrrolo[2,3-c]pyridine-5-carbonyl]-amino}-acetic acid]
- viability at 20 µM [1, 3]: 74%
- viability at 20 µM [1, 4]: 53%
- viability at 20 µM [1, 5]: 52%

SMILES: Cc1ccc(Oc2cccc3c(O)c(C(=O)NCC(=O)O)nc(-c4cccnc4)c23)cc1 [Compound C, [(4-Hydroxy-1-pyridin-3-yl-8-p-tolyloxy-isoquinoline-3-carbonyl)-amino]-acetic acid]
- viability at 20 µM [1, 6]: 61%
- viability at 20 µM [1, 7]: 51%
- viability at 20 µM [1, 8]: 16%

SMILES: CC1(C)C(=O)C(C(=O)NCC(=O)O)=C(O)c2cc(Cl)ccc21 [Compound N, [(7-Chloro-1-hydroxy-4,4-dimethyl-3-oxo-3,4-dihydro-naphthalene-2-carbonyl)-amino]-acetic acid]
- viability at 20 µM [1, 3]: 82%
- viability at 20 µM [1, 4]: 67%
- viability at 20 µM [1, 5]: 67%

SMILES: Cc1ccc(Oc2cccc3c(C#N)nc(C(=O)NCC(=O)O)c(O)c23)cc1 [Compound B, [(1-Cyano-4-hydroxy-5-p-tolyloxy-isoquinoline-3-carbonyl)-amino]-acetic acid]
- viability at 20 µM [1, 6]: 76%
- viability at 20 µM [1, 7]: 54%
- viability at 20 µM [1, 8]: 16%

SMILES: CCCCCCOc1ccc2oc(=O)c(C(=O)NCC(=O)O)c(O)c2c1 [Compound K, [(6-Hexyloxy-4-hydroxy-2-oxo-2H-chromene-3-carbonyl)-amino]-acetic acid]
- viability at 20 µM [1, 3]: 72%
- viability at 20 µM [1, 4]: 43%
- viability at 20 µM [1, 5]: 56%

SMILES: COc1cccc(Oc2cccc3c(O)c(C(=O)NCC(=O)O)ncc23)c1 [Compound E, {[4-Hydroxy-8-(3-methoxy-phenoxy)-isoquinoline-3-carbonyl]-amino}-acetic acid]
- viability at 20 µM [1, 3]: 84%
- viability at 20 µM [1, 4]: 74%
- viability at 20 µM [1, 5]: 71%

SMILES: COc1cc(F)cc(Oc2ccc3c(O)c(C(=O)NCC(=O)O)ncc3c2)c1 [Compound D, {[7-(3-Fluoro-5-methoxy-phenoxy)-4-hydroxy-isoquinoline-3-carbonyl]-amino}-acetic acid]
- viability at 20 µM [1, 3]: 79%
- viability at 20 µM [1, 4]: 74%
- viability at 20 µM [1, 5]: 61%

SMILES: C[C@H](NC(=O)c1c(O)c2cc(Cl)cn2n(Cc2ccc(C(F)(F)F)cc2)c1=O)C(=O)O [Compound H, (S)-2-{[6-Chloro-4-hydroxy-2-oxo-1-(4-trifluoromethyl-benzyl)-1,2-dihydro-pyrrolo[1,2-b]pyridazine-3-carbonyl]-amino}-propionic acid]
- viability at 20 µM [1, 3]: 73%
- viability at 20 µM [1, 4]: 74%
- viability at 20 µM [1, 5]: 77%

SMILES: O=C(O)CNC(=O)c1ncc2cc(Oc3ccccc3)ccc2c1O [Compound F, [(4-Hydroxy-7-phenoxy-isoquinoline-3-carbonyl)-amino]-acetic acid]
- viability at 20 µM [1, 6]: 85%
- viability at 20 µM [1, 3]: 72%
- viability at 20 µM [1, 7]: 66%
- viability at 20 µM [1, 4]: 53%
- viability at 20 µM [1, 8]: 62%
- viability at 20 µM [1, 5]: 51%

SMILES: COc1ccc(-c2ccc3c(O)c(C(=O)NCC(=O)O)c(=O)sc3c2)cc1 [Compound L, {[4-Hydroxy-7-(4-methoxy-phenyl)-2-oxo-2H-thiochromene-3-carbonyl]-amino}-acetic acid]
- viability at 20 µM [1, 3]: 75%
- viability at 20 µM [1, 4]: 59%
- viability at 20 µM [1, 5]: 64%

SMILES: N#Cc1nc(C(=O)NCC(=O)O)c(O)c2ccn(Cc3ccc(-c4ccccc4)cc3)c12 [Compound P, [(1-Biphenyl-4-ylmethyl-7-cyano-4-hydroxy-1H-pyrrolo[2,3-c]pyridine-5-carbonyl)-amino]-acetic acid]
- viability at 20 µM [1, 6]: 79%
- viability at 20 µM [1, 7]: 80%
- viability at 20 µM [1, 8]: 77%

SMILES: COc1ccc(Cn2c(Cl)c(Cl)c3c(O)c(C(=O)NCC(=O)O)nc(C#N)c32)cc1 [Compound Q, {[2,3-Dichloro-7-cyano-4-hydroxy-1-(4-methoxy-benzyl)-1H-pyrrolo[2,3-c]pyridine-5-carbonyl]-amino}-acetic acid]
- viability at 20 µM [1, 3]: 70%
- viability at 20 µM [1, 4]: 59%
- viability at 20 µM [1, 5]: 50%
